# According to paper PMC4000071 (Journal of Toxicologic Pathology, 2014):
# Read-outs that look alike come from different tables or passages of the source.
# Legend:
# dogs = settings: cited from earlier work
# phospholipidosis (PLD) = assay: in vitro PLD screen; assay type: cell-based; settings: read-out: EC50 (phospholipogenic, in vitro)
# rats = settings: cited from earlier work
structure (smiles),measurement,setting,value
CCCCc1oc2ccccc2c1C(=O)c1cc(I)c(OCCN(CC)CC)c(I)c1 [amiodarone],corneal microdeposits (incidence),dogs; after 6 weeks,1 of 6
same,alteration in the retina or optic nerve,dogs; after 11 weeks of dosing,did not cause any alteration in the retina or optic nerve
CCN(CC)CCCC(C)Nc1ccnc2cc(Cl)ccc12 (stereo not drawn) [chloroquine],EC50,phospholipidosis (PLD),< 20 µM
CN(C)CCCC1(c2ccc(F)cc2)OCc2cc(C#N)ccc21 (stereo not drawn) [citalopram],PLD in nervous tissues,rats,"caused PLD in 1 sympathetic ganglion, none or very weak PLD in retinal and trigeminal ganglia, and hypothalamic neurosecretory perikarya"
same,PLD,dogs,did not cause PLD
CNCCC(Oc1ccc(C(F)(F)F)cc1)c1ccccc1 (stereo not drawn) [fluoxetine],PLD in nervous tissues,rats,caused PLD in retinas
same,PLD-like vacuolation in nerve cells,rats,"PLD-like vacuolation in nerve cells in the thalamus, cerebellum, spinal cord and ganglion"
same,neuronal degeneration or neurological findings,dogs; after 1 year of dosing,no neuronal degeneration or neurological findings were observed
CN(C)CCCN1c2ccccc2CCc2ccccc21 [imipramine],PLD in nervous tissues,rats,caused PLD in retina and DRG
C1CCC(C(CC2CCCCN2)C2CCCCC2)CC1 (stereo not drawn) [perhexiline],EC50,phospholipidosis (PLD),< 20 µM
CC[C@@H]([C@H](C)O)n1ncn(-c2ccc(N3CCN(c4ccc(OC[C@@H]5CO[C@@](Cn6cncn6)(c6ccc(F)cc6F)C5)cc4)CC3)cc2)c1=O [posaconazole],PLD,dogs; chronic administration,caused PLD in DRG and medulla oblongata neurons in the brain
same,neuronal degeneration or necrosis,dogs; chronic administration,no evidence of neuronal degeneration or necrosis
